Data reported in article PMC8588048, “Discovery of Guanidine Derivatives from Buthus martensii Karsch with Metal-Binding and Cholinesterase Inhibition Properties” (Molecules, 2021).
Entries after “also recorded” stand apart in the source; their conditions may differ. Like-named read-outs stand apart in the source and are kept apart here.

Columns and labels:
[1] = biological target: T1, AChE (EC 3.1.1.7, from electric eel) (Electrophorus electricus, UniProt O42275); assay: biochemical; type: biochemical; conditions: for SI for AChE = IC50 BChE/IC50 AChE: selectivity index for AChE over BChE
T1 construct: purchased Sigma-Aldrich (St. Louis, MO, USA)
Procedure: (§1) A Waters Acquity UPLC Class I/Xevo G2Q-Tof mass spectrometer (Milford, MA, USA) was used to obtain the high-resolution ESI-MS (HR-ESI-MS) data. ^1H and ^13C NMR spectra were acquired on a Bruker Avance III 400 spectrometer spectrometer (Karlsruhe, Germany) with TMS as an internal standard. ^1H-^1H DQF-COSY, NOESY, TOCSY, HSQC and HMBC spectra were recorded using standard Bruker programs spectrometer (Topspin 3.5pl6, Karlsruhe, Germany). […] Thin layer chromatography (TLC) analysis was performed on alumina plates coated with silica gel 60 and silica gel 60 RP-18 F254 (Merck) spectrometer (Darmstadt, Germany). Chromatographic separation was performed on self-packed columns with silica gel (Anhui Liangchen Silicon Material Co. Ltd., China) and reversed-phase silica gel (ODS-A 12 nm S-50 μm YMC Co., Kyoto, Japan). AChE (EC 3.1.1.7, from electric eel), BChE (EC 3.1.1.8, from equine serum), 5,5′-dithiobis(2-nitrobenzoic acid) (DTNB), acetylthiocholine iodide (ATCI), and butyrylthiocholine iodide (BTCI) were purchased from Sigma-Aldrich (St. Louis, MO, USA).
(§2) AChE (EC 3.1.1.7, from electric eel) and BChE (EC 3.1.1.8, from equine serum) were purchased from Sigma-Aldrich (St. Louis, MO, USA). […] After reaction for 15 min at 25 °C, 10 μL of 10 mM DTNB and 10 μL of 7.5 mM ATCI (BTCI) were added and then incubated for 40 min at 37 °C. […] Blank groups were set up by replacing the sample solution with 20 μL phosphate buffer (Ac). All tests were performed in triplicate.

[2] = biological target: T2, BChE (EC 3.1.1.8, from equine serum) (Equus caballus, UniProt P81908); assay: biochemical
T2 construct: purchased Sigma-Aldrich (St. Louis, MO, USA); host or cells: equine serum
Procedure: as §1, §2

AChE = biological target: T3, AChE (Electrophorus electricus, UniProt O42275); assay: Enzyme kinetic analysis against AChE; type: biochemical; conditions: for Ki: Dixon and Cornish–Bowden plots; for type of AChE inhibition: Lineweaver–Burk plots, ATCI 3.75–15.00 mM; for reversibility of AChE inhibition: initial velocity versus enzyme concentration, AChE 0.025–0.10 U/mL
T3 construct: purchased Sigma-Aldrich (St. Louis, MO, USA)
Procedure: […]. Inhibition constants for AChE were determined from Dixon plot (1/Vi vs. (I)) and Cornish–Bowden transformation ((S)/Vi vs. (I)).

[3] = Metal-binding studies (UV spectra); type: physicochemical; conditions: UV 200–400 nm, compound 20 μM, CuCl2, FeCl2, ZnCl2, AlCl3 20 μM, methanol, 30 min
Procedure: The chelating studies were performed on an ultraviolet–visible spectrophotometry meter (HITACHI U-3900H, Tokyo, Japan). The UV absorption spectra of the test compound alone (20 μM, final concentration) or in the presence of CuCl2, FeCl2, ZnCl2 and AlCl3 (20 μM, final concentration) were recorded with the wavelength ranging from 200 to 400 nm after incubating for 30 min in methanol at room temperature.

[4] = biological target: T4, peripheral anionic site (PAS) of AChE (Electrophorus electricus, UniProt O42275); type: binding; conditions: test compounds 100 μM, propidium iodide 1 μM, AChE 5U
T4 construct: purchased Sigma-Aldrich (St. Louis, MO, USA)
Procedure: The assay mixture of AChE (5U) was incubated with test compounds (final concentration 100 μM, 150 μL) for 6 h at 25 °C. After reaction, 50 μL Propidium iodide (1 μM) was added. […] The percentage of displacement was calculated by the following expression: 100 − (IFi/IF0 × 100), where IFi and IF0 are the fluorescence intensities with and without the test compounds, respectively.

[5] = means ± SD, at least three independent experiments, read-out: IC50 AChE
[6] = means ± SD, at least three independent experiments, read-out: IC50 BChE

T2 sequence (P81908 whole entry): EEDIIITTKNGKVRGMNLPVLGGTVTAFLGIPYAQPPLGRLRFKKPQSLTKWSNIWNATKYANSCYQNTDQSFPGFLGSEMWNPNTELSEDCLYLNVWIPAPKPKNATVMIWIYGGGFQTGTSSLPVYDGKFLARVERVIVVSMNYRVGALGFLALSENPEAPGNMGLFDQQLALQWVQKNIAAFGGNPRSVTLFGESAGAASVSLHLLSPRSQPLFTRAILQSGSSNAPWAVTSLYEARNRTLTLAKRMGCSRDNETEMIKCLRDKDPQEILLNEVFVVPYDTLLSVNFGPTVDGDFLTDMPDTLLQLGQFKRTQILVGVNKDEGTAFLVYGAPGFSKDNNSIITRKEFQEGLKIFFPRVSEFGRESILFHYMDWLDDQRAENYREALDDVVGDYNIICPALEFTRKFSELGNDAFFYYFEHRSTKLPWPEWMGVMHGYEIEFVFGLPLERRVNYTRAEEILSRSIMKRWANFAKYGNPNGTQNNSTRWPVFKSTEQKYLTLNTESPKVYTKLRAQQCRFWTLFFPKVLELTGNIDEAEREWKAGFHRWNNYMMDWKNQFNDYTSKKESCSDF
T1 sequence (O42275 24-633): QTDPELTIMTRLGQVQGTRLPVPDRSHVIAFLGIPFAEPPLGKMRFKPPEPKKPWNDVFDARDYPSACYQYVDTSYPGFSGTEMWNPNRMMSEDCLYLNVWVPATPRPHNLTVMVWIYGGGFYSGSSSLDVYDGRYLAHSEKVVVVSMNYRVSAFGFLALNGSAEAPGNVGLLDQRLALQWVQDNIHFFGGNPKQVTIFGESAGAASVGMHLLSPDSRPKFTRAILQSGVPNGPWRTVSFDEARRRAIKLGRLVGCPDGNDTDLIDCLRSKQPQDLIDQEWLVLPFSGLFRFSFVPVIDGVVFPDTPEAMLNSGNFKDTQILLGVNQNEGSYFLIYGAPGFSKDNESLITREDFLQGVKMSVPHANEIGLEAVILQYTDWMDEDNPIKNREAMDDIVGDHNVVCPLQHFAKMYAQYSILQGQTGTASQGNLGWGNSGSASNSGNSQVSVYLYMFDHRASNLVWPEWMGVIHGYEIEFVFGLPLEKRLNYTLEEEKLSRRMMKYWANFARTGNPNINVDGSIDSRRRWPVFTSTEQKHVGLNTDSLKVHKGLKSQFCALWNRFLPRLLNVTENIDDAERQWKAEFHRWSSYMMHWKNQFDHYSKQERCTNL
T3 sequence (O42275 24-633): as above
T4 sequence (O42275 24-633): as above

Row | Compound | IC50 [1, 5] [µM] | SI for AChE = IC50 BChE/IC50 AChE [1] | IC50 [2, 6] [µM] | Ki (AChE; read-out: inhibition constant Ki,c (competitive component)) [µM] | Ki (AChE; read-out: inhibition constant Ki,nc (non-competitive component)) [µM] | type of AChE inhibition (AChE) | reversibility of AChE inhibition (AChE) | reversibility of AChE inhibition (AChE; listed as Buthutin A) | metal binding ability toward Cu2+, Fe2+, Zn2+ and Al3+ [3] | Propidium Iodide Displacement [4] [%] | IC50 [1] [µM] | IC50 AChE [1] | IC50 [2] [µM]
1 | CC(C)CCSS [Compound 4, 3-methylbuthyl hydrodisulfide] | 40.9 ± 3.21 | 3.73 | 153 ± 7.22 | – | – | – | – | – | – | – | – | – | –
2 | N=C(N)NCCCCNC(=O)c1ccc(O)cc1 [Compound 1, N-(4-guanidinobutyl)-4-hydroxybenzamide] | 7.83 ± 0.06 | 6.05 | 47.4 ± 0.95 | 2.64 ± 0.35 | 5.66 ± 0.82 | mixed type of inhibition | reversible inhibitors | reversible | satisfactory biometal binding abilities; also recorded: potent metal binding ability; also recorded: satisfactory metal-binding properties | 18.29 ± 0.53 | – | – | –
3 | N=C(N)NCCCCNC(=O)c1ccccn1 [Compound 2, N-(4-guanidinobutyl)picolinamide] | 61.4 ± 2.34 | 1.99 | 123 ± 5.21 | – | – | mixed type of inhibition | reversible inhibitors | – | – | 17.95 ± 0.98 | – | – | –
4 | C[n+]1cccc(C(=O)[O-])c1 [Compound 3] | – | – | – | – | – | – | – | – | satisfactory biometal binding abilities; also recorded: potent metal binding ability; also recorded: satisfactory metal-binding properties | – | 97.3 ± 4.18 | weaker inhibitory effect | 442 ± 7.99
